One experiment deals with Stromelysin-1 (Homo sapiens, UniProt P08254). Kind of experiment: Inhibition of MMP3.
For experiment [1], the target named is 72 kDa type IV collagenase (Homo sapiens, UniProt P08253). The experiment can be described thus: Inhibition of MMP2.
The target of the next experiment is Collagenase 3 (Homo sapiens, UniProt P45452).
A further experiment deals with T1, Interstitial collagenase (Homo sapiens, UniProt P03956).
T1 sequence (P03956 whole entry): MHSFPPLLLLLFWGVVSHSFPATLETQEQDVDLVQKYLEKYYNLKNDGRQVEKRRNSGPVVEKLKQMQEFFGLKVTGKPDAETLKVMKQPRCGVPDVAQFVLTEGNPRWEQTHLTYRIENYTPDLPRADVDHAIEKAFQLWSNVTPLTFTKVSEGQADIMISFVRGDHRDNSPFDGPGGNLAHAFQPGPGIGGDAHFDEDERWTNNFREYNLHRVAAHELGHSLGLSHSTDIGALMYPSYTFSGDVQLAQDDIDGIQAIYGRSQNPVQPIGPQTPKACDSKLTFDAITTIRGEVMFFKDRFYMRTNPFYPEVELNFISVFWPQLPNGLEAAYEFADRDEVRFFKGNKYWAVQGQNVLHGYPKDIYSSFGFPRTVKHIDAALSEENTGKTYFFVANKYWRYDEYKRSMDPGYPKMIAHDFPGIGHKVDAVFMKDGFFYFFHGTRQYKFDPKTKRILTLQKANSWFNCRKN
The experiment can be described thus: Inhibition of MMP1.

Experiment [2] deals with Matrix metalloproteinase-9 (Homo sapiens, UniProt P14780). Kind of experiment: Inhibition of MMP9.
The target of experiment [3] is T2, Disintegrin and metalloproteinase domain-containing protein 17 (Homo sapiens, UniProt P78536). Kind of experiment: Inhibition of TACE.
Experiment [4] addresses Matrix metalloproteinase-14 (Homo sapiens, UniProt P50281). Kind of experiment: Inhibition of MMP14.
Experiment [5] addresses T2, Disintegrin and metalloproteinase domain-containing protein 17.
Description: Inhibition of TACE in human whole blood assay

These results are taken from ChEMBL document CHEMBL1146270, “Identification of potent and selective TACE inhibitors via the S1 pocket” (Bioorg Med Chem Lett, 2007).

T2 sequence (P78536 whole entry, the tested form may be a part): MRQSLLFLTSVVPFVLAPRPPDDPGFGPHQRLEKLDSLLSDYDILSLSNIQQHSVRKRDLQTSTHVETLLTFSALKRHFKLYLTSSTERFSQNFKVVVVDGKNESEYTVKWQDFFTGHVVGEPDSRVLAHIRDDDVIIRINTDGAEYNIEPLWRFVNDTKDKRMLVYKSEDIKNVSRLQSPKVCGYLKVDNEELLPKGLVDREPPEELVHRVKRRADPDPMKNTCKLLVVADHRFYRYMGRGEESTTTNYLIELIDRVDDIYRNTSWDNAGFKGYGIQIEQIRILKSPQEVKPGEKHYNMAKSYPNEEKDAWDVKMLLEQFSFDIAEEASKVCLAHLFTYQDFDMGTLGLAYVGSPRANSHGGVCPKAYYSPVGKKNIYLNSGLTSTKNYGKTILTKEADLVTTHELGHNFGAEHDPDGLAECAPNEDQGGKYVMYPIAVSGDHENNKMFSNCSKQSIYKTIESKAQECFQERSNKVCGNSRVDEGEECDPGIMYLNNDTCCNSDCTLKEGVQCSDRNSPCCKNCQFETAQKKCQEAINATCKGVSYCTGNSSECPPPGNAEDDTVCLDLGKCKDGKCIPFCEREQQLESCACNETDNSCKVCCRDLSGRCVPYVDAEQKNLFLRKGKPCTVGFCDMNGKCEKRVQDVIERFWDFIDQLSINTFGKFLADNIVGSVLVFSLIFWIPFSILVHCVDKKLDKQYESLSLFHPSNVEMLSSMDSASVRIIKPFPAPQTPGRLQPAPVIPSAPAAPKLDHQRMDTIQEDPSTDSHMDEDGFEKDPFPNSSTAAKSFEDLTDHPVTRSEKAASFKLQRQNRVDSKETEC
Chain of 72 kDa type IV collagenase (P08253 whole entry): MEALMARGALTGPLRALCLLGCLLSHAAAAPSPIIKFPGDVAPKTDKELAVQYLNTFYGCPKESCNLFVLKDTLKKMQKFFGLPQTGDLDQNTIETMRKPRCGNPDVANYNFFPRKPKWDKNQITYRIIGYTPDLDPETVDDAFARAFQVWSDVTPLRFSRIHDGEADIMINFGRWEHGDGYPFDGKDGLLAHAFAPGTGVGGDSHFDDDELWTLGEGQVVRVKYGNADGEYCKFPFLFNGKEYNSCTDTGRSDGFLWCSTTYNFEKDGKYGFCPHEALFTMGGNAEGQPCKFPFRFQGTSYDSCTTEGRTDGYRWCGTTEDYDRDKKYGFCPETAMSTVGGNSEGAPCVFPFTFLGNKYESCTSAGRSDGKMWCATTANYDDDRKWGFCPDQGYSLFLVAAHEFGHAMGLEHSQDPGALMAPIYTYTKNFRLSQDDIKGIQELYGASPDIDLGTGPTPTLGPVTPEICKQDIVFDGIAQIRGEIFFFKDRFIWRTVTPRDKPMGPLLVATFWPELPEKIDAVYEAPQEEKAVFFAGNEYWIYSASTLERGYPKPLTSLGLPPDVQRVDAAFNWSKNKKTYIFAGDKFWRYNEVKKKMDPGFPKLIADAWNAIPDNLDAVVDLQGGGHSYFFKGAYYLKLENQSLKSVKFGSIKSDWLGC
Chain of Matrix metalloproteinase-9 (P14780 whole entry, the tested form may be a part): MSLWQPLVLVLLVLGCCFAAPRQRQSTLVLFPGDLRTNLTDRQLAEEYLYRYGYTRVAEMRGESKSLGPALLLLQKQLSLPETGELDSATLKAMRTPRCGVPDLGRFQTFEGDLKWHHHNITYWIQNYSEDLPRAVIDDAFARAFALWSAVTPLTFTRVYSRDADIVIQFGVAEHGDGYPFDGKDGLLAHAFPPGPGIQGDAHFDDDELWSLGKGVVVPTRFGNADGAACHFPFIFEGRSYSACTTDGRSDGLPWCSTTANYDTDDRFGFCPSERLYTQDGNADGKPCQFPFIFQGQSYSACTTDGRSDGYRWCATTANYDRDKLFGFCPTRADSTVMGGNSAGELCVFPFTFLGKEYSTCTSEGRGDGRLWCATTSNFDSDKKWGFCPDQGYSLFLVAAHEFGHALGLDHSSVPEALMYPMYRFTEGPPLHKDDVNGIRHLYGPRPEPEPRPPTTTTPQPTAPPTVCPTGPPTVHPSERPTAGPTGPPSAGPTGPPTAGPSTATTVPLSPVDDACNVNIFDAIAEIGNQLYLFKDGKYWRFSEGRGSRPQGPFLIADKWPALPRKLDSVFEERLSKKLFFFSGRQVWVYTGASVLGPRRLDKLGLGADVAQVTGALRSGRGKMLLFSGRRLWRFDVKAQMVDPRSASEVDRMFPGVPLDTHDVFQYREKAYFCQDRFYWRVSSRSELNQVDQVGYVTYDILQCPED
Chain of Stromelysin-1 (P08254 whole entry): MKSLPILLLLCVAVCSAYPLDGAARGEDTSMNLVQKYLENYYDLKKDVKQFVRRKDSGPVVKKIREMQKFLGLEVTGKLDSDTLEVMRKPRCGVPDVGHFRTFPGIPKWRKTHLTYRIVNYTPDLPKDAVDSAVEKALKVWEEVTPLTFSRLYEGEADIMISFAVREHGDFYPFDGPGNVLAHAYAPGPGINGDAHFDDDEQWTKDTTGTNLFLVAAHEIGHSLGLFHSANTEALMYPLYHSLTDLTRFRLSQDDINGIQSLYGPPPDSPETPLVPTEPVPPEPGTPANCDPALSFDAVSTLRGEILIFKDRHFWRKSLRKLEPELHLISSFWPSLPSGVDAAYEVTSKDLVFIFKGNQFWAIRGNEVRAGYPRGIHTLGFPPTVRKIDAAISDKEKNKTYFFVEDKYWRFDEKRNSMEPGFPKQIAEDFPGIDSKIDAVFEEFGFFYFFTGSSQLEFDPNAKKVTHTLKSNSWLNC

For orientation: IC50 means the concentration that inhibits the measured activity by half. A lower IC50 goes with greater potency in that assay. Consider `Cc1cc(COc2ccc([C@]3(C)CCN([C@H](C)C(=O)NO)C3=O)cc2)c2ccccc2n1`, for which the IC50 against Stromelysin-1 is 141 nM; in experiment [1], 2050 nM; at Collagenase 3, 1420 nM; on Interstitial collagenase, 30000 nM; in experiment [2], 10300 nM.
In the case of `CC#CCOc1ccc(S(=O)(=O)CC2(C(=O)NO)CCN(S(=O)(=O)N(C)C)CC2)cc1`, the IC50 in experiment [1] amounted to 61.3 nM; against Collagenase 3, 229 nM; in experiment [3], 1.8 nM.
`CC#CCOc1ccc(S(=O)(=O)CC2(C(=O)NO)CCN(S(=O)(=O)N3CCOCC3)CC2)cc1`: the values for the IC50 (in experiment [1]; at Collagenase 3; in experiment [3]) were 51 nM, 195 nM and 1 nM, respectively.
As for `CC#CCOc1ccc(S(=O)(=O)CC2(C(=O)NO)CCN(S(=O)(=O)N3CCCCC3)CC2)cc1`, the half-maximal inhibitory concentration (IC50) amounted to 51 nM in experiment [1], 144 nM against Collagenase 3 and 1.2 nM in experiment [3].
`CC#CCOc1ccc(S(=O)(=O)CC2(C(=O)NO)CCN(S(=O)(=O)N3CCN(C(C)=O)CC3)CC2)cc1`: the results for the IC50 (in experiment [1]; at Collagenase 3; in experiment [3]) were 20 nM, 104 nM and 1.5 nM, respectively.
Regarding `CC#CCOc1ccc(S(=O)(=O)CC2(C(=O)NO)CCN(S(=O)(=O)N3CCC[C@H]3COC)CC2)cc1`, the IC50 in experiment [1] turned out to be 58 nM; against Collagenase 3, 190 nM; in experiment [3], 1.5 nM.
Taken in the same sequence, the figures for `CC#CCOc1ccc(S(=O)(=O)CC2(C(=O)NO)CCN(S(=O)(=O)N3CCC[C@@H]3CO)CC2)cc1` were 172 nM, 354 nM and 1.4 nM.
On to `CC#CCOc1ccc(S(=O)(=O)CC2(C(=O)NO)CCN(Cc3c(Cl)cncc3Cl)CC2)cc1`, for which the concentration for half-maximal inhibition (IC50) in experiment [1] is 555 nM; against Collagenase 3, 259 nM; in experiment [4], 14800 nM; on Interstitial collagenase, 2680 nM; in experiment [2], 920 nM.
On to `CC#CCOc1ccc(S(=O)(=O)CC2(C(=O)NO)CCN(S(=O)(=O)C(C)(C)C)CC2)cc1`, for which the IC50 is 73 nM in experiment [1], 238 nM at Collagenase 3 and below 1 nM in experiment [3].
Take `CC#CCOc1ccc(S(=O)(=O)CC2(C(=O)NO)CCN(S(=O)(=O)CC3CCCCC3)CC2)cc1`: the results for the IC50 (in experiment [1]; against Collagenase 3; in experiment [3]) were 11 nM, 72 nM and below 1 nM, respectively.
For `CC#CCOc1ccc(S(=O)(=O)CC2(C(=O)NO)CCN(S(=O)(=O)CCN3CCOCC3)CC2)cc1`, the half-inhibitory concentration (IC50) is 37 nM in experiment [1], 43 nM on Collagenase 3 and 2.2 nM in experiment [3].
Consider `CC#CCOc1ccc(S(=O)(=O)CC2(C(=O)NO)CCN(S(=O)(=O)C(C)CN3CCOCC3)CC2)cc1` (stereo unspecified), for which the IC50 in experiment [1] is 37 nM; at Collagenase 3 it was 130 nM; in experiment [3] it was 1.4 nM.
As to `CC#CCOc1ccc(S(=O)(=O)CC2(C(=O)NO)CCN(S(=O)(=O)C3CCCC3)CC2)cc1`, the IC50 worked out at 54 nM in experiment [1], 155 nM on Collagenase 3 and 1.3 nM in experiment [3].
Consider `CC#CCOc1ccc(S(=O)(=O)CC2(C(=O)NO)CCN(S(=O)(=O)C3CCCCC3)CC2)cc1`, for which the results for the half-maximal inhibitory concentration (IC50) (in experiment [1]; against Collagenase 3; in experiment [3]) were 4 nM, 24.4 nM and 2.8 nM, respectively.
Taken in the same sequence, the figures for `CC#CCOc1ccc(S(=O)(=O)CC2(C(=O)NO)CCN(c3ccccn3)CC2)cc1` were 62.6 nM, 205 nM and 1.33 nM.
Regarding `CC#CCOc1ccc(S(=O)(=O)CC2(C(=O)NO)CCN(c3ccncc3)CC2)cc1`, the IC50 is 2060 nM in experiment [1], 2040 nM at Collagenase 3 and 5.6 nM in experiment [3].
Turning to `CC#CCOc1ccc(S(=O)(=O)CC2(C(=O)NO)CCN(c3nc4ccccc4n3C)CC2)cc1`, the IC50 in experiment [1] was 176 nM; against Collagenase 3 it was 166 nM; in experiment [3], below 1 nM.
In the case of `CC#CCOc1ccc(S(=O)(=O)CC2(C(=O)NO)CCN(S(=O)(=O)c3c(C)noc3C)CC2)cc1`, the IC50 in experiment [1] was found to be 664 nM; on Collagenase 3, 2280 nM; in experiment [4], 24000 nM.
Regarding `CC#CCOc1ccc(S(=O)(=O)CC2(C(=O)NO)CCN(S(=O)(=O)c3cn(C)c(C)n3)CC2)cc1`, the IC50 was determined as 19 nM in experiment [1], 147 nM at Collagenase 3 and 3 nM in experiment [3].
For `CC#CCOc1ccc(S(=O)(=O)CC2(C(=O)NO)CCN(S(=O)(=O)c3ccc(Cl)s3)CC2)cc1`, the IC50 in experiment [1] came out at 33 nM; in experiment [3], 7 nM.
Turning to `CC#CCOc1ccc(S(=O)(=O)CC2(C(=O)NO)CCN(S(=O)(=O)c3cc(Cl)sc3Cl)CC2)cc1`, the IC50 in experiment [1] is 22 nM; against Collagenase 3, 23 nM; in experiment [3], below 1 nM.
Take `CC#CCOc1ccc(S(=O)(=O)CC2(C(=O)NO)CCN(C(=O)c3ccncc3)CC2)cc1`: the IC50 was 21.5 nM against Collagenase 3, 583 nM in experiment [4] and 2.6 nM in experiment [3].
With `CC#CCOc1ccc(S(=O)(=O)N2CCSC(C)(C)C2C(=O)NO)cc1` (stereo unspecified), the 50% inhibitory concentration (IC50) on Interstitial collagenase is 201 nM; in experiment [3] it was 9 nM.
Consider `CC#CCOc1ccc(S(=O)(=O)CC2(C(=O)NO)CCN(S(=O)(=O)c3nc(C)sc3C)CC2)cc1`, for which the IC50 in experiment [1] is 32 nM; against Collagenase 3, 38 nM; in experiment [3], below 1 nM.
With `CC#CCOc1ccc(S(=O)(=O)CC2(C(=O)NO)CCN(S(=O)(=O)N3CCCC3)CC2)cc1`, the concentration for half-maximal inhibition (IC50) came out at 31 nM in experiment [1], 117 nM against Collagenase 3 and 1 nM in experiment [3].
In the case of `CC#CCOc1ccc(S(=O)(=O)CC2(C(=O)NO)CCN(C(=O)c3c(Cl)cncc3Cl)CC2)cc1`, the IC50 in experiment [5] was found to be 1300 nM; in experiment [1], 183 nM; against Collagenase 3, 449 nM; in experiment [3] it was 1.7 nM.
As to `CC#CCOc1ccc(S(=O)(=O)CC2(C(=O)NO)CCN(S(=O)(=O)Cc3ccncc3)CC2)cc1`, the IC50 stood at 82 nM in experiment [1], 295 nM on Collagenase 3 and 2 nM in experiment [3].
On to `CC#CCOc1ccc(S(=O)(=O)CC2(C(=O)NO)CCN(S(=O)(=O)C(CC)CC)CC2)cc1`, for which the figures for the IC50 (in experiment [1]; on Collagenase 3; in experiment [3]) were 58 nM, 136 nM and 1.2 nM, respectively.
Take `CC#CCOc1ccc(S(=O)(=O)CC2(C(=O)NO)CCN(S(=O)(=O)C3CC3)CC2)cc1`: the results for the half-maximal inhibitory concentration (IC50) (in experiment [1]; against Collagenase 3; in experiment [3]) were 161 nM, 1160 nM and 1.6 nM, respectively.
Turning to `CC#CCOc1ccc(S(=O)(=O)CC2(C(=O)NO)CCN(c3nc4ccccc4o3)CC2)cc1`, the values for the IC50 (in experiment [1]; at Collagenase 3; in experiment [3]) were 40 nM, 56 nM and 1.1 nM, respectively.
For `CC#CCOc1ccc(S(=O)(=O)CC2(C(=O)NO)CCN(S(=O)(=O)c3c(C)nn(C)c3C)CC2)cc1` the same measures were 99.5 nM, 385 nM and below 1 nM.
Turning to `Cc1cc(COc2ccc(S(=O)(=O)CC(CC3CCN(C(C)(C)C)CC3)N(O)C=O)cc2)c2ccccc2n1` (stereo unspecified), the IC50 on Stromelysin-1 is 1500 nM; in experiment [1], 5000 nM; against Collagenase 3, 4000 nM; in experiment [3], 12 nM; in experiment [2] it was 90000 nM.
